Test results taken from ChEMBL document CHEMBL4673389 (ACS Med Chem Lett, 2021).
pIC50, pKi: −log10 of the molar value. Calls of active or inactive are those of the source. The calls are words filed in the database; no cut-off is given here.

Assays:
Protein cereblon [1] = target: T1, Protein cereblon (Homo sapiens, UniProt Q96SW2); assay: Binding affinity to human CRBN-thalidomide binding domain expressed in Escherichia coli by measuring baseline corrected normalized fluorescence by MST based assay
Protein cereblon [2] = target: T1, Protein cereblon; assay: Competitive binding affinity to human CRBN-thalidomide binding domain expressed in Escherichia coli by FRET assay
Cereblon isoform 4 = target: T2, Cereblon isoform 4 (Magnetospirillum gryphiswaldense, UniProt A4TVL0); assay: Binding affinity to Magnetospirillum gryphiswaldense cereblon isoform 4 by measuring baseline corrected normalized fluorescence by MST based assay
T2 sequence (A4TVL0 whole entry): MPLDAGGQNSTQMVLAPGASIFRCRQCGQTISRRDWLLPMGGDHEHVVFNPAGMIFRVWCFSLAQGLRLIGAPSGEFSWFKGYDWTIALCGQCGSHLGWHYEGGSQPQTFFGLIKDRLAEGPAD

| SMILES | pIC50 (Protein cereblon [1]) | pKi (Protein cereblon [1]) | further results |
| --- | --- | --- | --- |
| O=c1ccn([C@@H]2O[C@H](COP(=O)(O)O)[C@@H](O)[C@H]2O)c(=O)[nH]1 | < 2.30 | – | – |
| O=C1CNCN1 | < 2.30 | – | – |
| NN1CC(=O)NC1=O | 3.35 | 3.64 | – |
| CN1CC(=O)NC1=O | 3.86 | 4.17 | – |
| Nn1ccc(=O)[nH]c1=O | 4.07 | 4.39 | – |
| O=C1CN(/N=C/c2ccc([N+](=O)[O-])o2)C(=O)N1 | – | – | Activity (Protein cereblon [1]): inactive |
| O=C1CN(/N=C/c2ccccc2)C(=O)N1 | – | – | Activity (Protein cereblon [1]): inactive |
| O=C1CN(/N=C/c2ccccc2[N+](=O)[O-])C(=O)N1 | – | – | Activity (Protein cereblon [1]): inactive |
| O=C1CN(/N=C/c2ncc(-c3ccc(Br)cc3)o2)C(=O)N1 | – | – | Activity (Protein cereblon [1]): inactive |
| COc1c(-c2ccc3cc(NS(C)(=O)=O)ccc3c2)cc(-n2ccc(=O)[nH]c2=O)cc1C(C)(C)C [DASABUVIR] | 4.81 | 5.33 | – |
| C[S+](C)[O-] [DIMETHYL SULFOXIDE] | – | – | pKi (Protein cereblon [2]): 3.86 |
| O=C1CN(/N=C/C=C/c2ccc([N+](=O)[O-])o2)C(=O)N1 [FURAZIDIN] | < 3.00 | – | – |
| CC(C)OC(=O)[C@H](C)N[P@](=O)(OC[C@H]1O[C@@H](n2ccc(=O)[nH]c2=O)[C@](C)(F)[C@@H]1O)Oc1ccccc1 [SOFOSBUVIR] | < 3.00 | – | – |

Further lines, with some results ahead:

| pIC50 (Protein cereblon [1]) | pKi (Protein cereblon [1]) | SMILES | further results |
| --- | --- | --- | --- |
| 3.38 | 3.67 | O=C1CNC(=O)N1 [HYDANTOIN] | – |
| 3.69 | 3.99 | COc1ccc(C2CNC(=O)C2)cc1OC1CCCC1 (stereo unspecified) [ROLIPRAM] | – |
| 4.65 | 5.09 | O=C1CCC(=O)N1 [SUCCINIMIDE] | pIC50 (Cereblon isoform 4): 5.45; pKi (Cereblon isoform 4): 6.19 |
| 3.48 | 3.77 | O=C1CNC(=S)N1 [THIOHYDANTOIN] | – |
| 3.38 | 3.67 | O=c1cc[nH]c(=O)[nH]1 [URACIL] | – |
| 3.12 | 3.41 | O=c1ccn([C@@H]2O[C@H](CO)[C@@H](O)[C@H]2O)c(=O)[nH]1 [URIDINE] | – |
